The assay addresses T1, human GLP-1 receptor (Homo sapiens, UniProt P43220).
T1 construct: expressed in transfected cells
The assay can be described thus: GLP-1R cAMP Assay. The settings on record: cAMP accumulation in CHO cells stably overexpressing the human GLP-1 receptor; 30 min treatment; HitHunter cAMP kit; read-out: EC50. In kind it is cell-based. In a few lines:
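Luminescent enzyme-complementation detection of cAMP, read after cell lysis and overnight incubation, with dose-response curve fitting. Stimulation lasted 30 min, using 20-point triplicate dosing on CHO cells (10,000 per well) stably overexpressing human GLP-1R.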
T1 sequence (P43220 24-463): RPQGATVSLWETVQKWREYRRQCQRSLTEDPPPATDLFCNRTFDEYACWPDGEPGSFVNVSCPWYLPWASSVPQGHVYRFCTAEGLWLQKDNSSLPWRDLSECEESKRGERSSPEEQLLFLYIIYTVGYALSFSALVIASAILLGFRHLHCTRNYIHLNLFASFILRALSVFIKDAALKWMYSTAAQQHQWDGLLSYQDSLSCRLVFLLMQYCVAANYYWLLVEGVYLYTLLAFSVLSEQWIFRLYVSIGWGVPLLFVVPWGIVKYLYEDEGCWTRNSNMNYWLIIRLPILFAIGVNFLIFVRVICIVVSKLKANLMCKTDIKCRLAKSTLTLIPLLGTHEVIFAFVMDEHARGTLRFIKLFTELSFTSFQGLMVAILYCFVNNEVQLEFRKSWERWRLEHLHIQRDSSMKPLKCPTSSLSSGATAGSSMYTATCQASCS
For `O=C(O)c1ccc2nc(CN3CC=C(Cc4ccc(COc5ccc(Cl)cc5Cl)o4)CC3)n(C[C@@H]3CCO3)c2c1` [Compound 84, 2-{[4-({5-[(2,4-dichlorophenoxy)methyl]furan-2-yl}methyl)-1,2,3,6-tetrahydropyridin-1-yl]methyl}-1-{[(2S)-oxetan-2-yl]methyl}-1H-1,3-benzodiazole-6-carboxylic acid], the EC50 is below 50 nM.
Then `Cc1ccc(N(C)c2cncc(C(=O)N3CCN(Cc4nc5ccc(C(=O)O)cc5n4C[C@@H]4CCO4)CC3)c2)c(Cl)c1` [Compound 85, 2-[(4-{5-[(2-chloro-4-methylphenyl)(methyl)amino]pyridine-3-carbonyl}piperazin-1-yl)methyl]-1-{[(2S)-oxetan-2-yl]methyl}-1H-1,3-benzodiazole-6-carboxylic acid], with 50 to 500 nM; and `Cc1ccc(N(C)c2cccc(S(=O)(=O)N3CCN(Cc4nc5ccc(C(=O)O)cc5n4C[C@@H]4CCO4)CC3)c2)c(Cl)c1` [Compound 86, 2-[(4-{3-[(2-chloro-4-methylphenyl)(methyl)amino]benzenesulfonyl}piperazin-1-yl)methyl]-1-{[(2S)-oxetan-2-yl]methyl}-1H-1,3-benzodiazole-6-carboxylic acid], with above 500 nM; and `Cc1ccc(N(C)c2cccc(C(=O)N3CC4CCC(C3)N4Cc3nc4ccc(C(=O)O)cc4n3C[C@@H]3CCO3)c2)c(Cl)c1` [Compound 87, 2-[(3-{3-[(2-chloro-4-methylphenyl)(methyl)amino]benzoyl}-3,8-diazabicyclo[3,2.1]octan-8-yl)methyl]-1-{[(2S)-oxetan-2-yl]methyl}-1H-1,3-benzodiazole-6-carboxylic acid], with 50 to 500 nM.
In the case of `Cc1ccc(N(C)c2ccnc(C(=O)N3CCN(Cc4nc5ccc(C(=O)O)cc5n4C[C@@H]4CCO4)CC3)c2)c(Cl)c1` [Compound 88, 2-[(4-{4-[(2-chloro-4-methylphenyl)(methyl)amino]pyridine-2-carbonyl}piperazin-1-yl)methyl]-1-{[(2S)-oxetan-2-yl]methyl}-1H-1,3-benzodiazole-6-carboxylic acid], the EC50 was above 500 nM.
Then `Cc1ccc(N(C)c2ccc(C3CC3)c(C(=O)N3CCN(Cc4nc5ccc(C(=O)O)cc5n4C[C@@H]4CCO4)CC3)c2)c(Cl)c1` [Compound 93, 2-[(4-{5-[(2-chloro-4-methylphenyl)(methyl)amino]-2-cyclopropylbenzoyl}piperazin-1-yl)methyl]-1-{[(2S)-oxetan-2-yl]methyl}-1H-1,3-benzodiazole-6-carboxylic acid], with 50 to 500 nM.
Then `O=C(c1ccc(-c2nnn[nH]2)nc1)N1CCN(Cc2ccc(COc3ccc(Cl)cc3Cl)o2)CC1` [Compound 97, 1-({5-[(2,4-dichlorophenoxy)methyl]furan-2-yl}methyl)-4-[6-(1H-1,2,3,4-tetrazol-5-yl)pyridine-3-carbonyl]piperazine], with above 500 nM; and `Cc1ccc(N(C)c2ccc(F)c(C(=O)N3CCN(Cc4nc5ccc(C(=O)O)cc5n4C[C@@H]4CCO4)CC3)c2)c(Cl)c1` [Compound 98, 2-[(4-{5-[(2-chloro-4-methylphenyl)(methyl)amino]-2-fluorobenzoyl}piperazin-1-yl)methyl]-1-{[(2S)-oxetan-2-yl]methyl}-1H-1,3-benzodiazole-6-carboxylic acid], with below 50 nM.
For `Cc1ccc(N(C)c2cc(F)cc(C(=O)N3CCN(Cc4nc5ccc(C(=O)O)cc5n4C[C@@H]4CCO4)CC3)c2)c(Cl)c1` [Compound 100, 2-[(4-{3-[(2-chloro-4-methylphenyl)(methyl)amino]-5-fluorobenzoyl}piperazin-1-yl)methyl]-1-{[(2S)-oxetan-2-yl]methyl}-1H-1,3-benzodiazole-6-carboxylic acid] the value was below 50 nM.
As to `Cc1ccc(N(C)c2cccc(C(=O)N3CCN(Cc4nc5ccc(C(=O)O)cc5n4C[C@@H]4CCO4)CC3)n2)c(Cl)c1` [Compound 101, 2-[(4-{6-[(2-chloro-4-methylphenyl)(methyl)amino]pyridine-2-carbonyl}piperazin-1-yl)methyl]-1-{[(2S)-oxetan-2-yl]methyl}-1H-1,3-benzodiazole-6-carboxylic acid], the EC50 is 50 to 500 nM.
Then `O=C(O)c1ccc2nc(CN3CCC(Cc4cccc(COc5ccc(Cl)cc5Cl)c4)CC3)n(C[C@@H]3CCO3)c2c1` [Compound 103, 2-{[4-({3-[(2,4-dichlorophenoxy)methyl]phenyl}methyl)piperidin-1-yl]methyl}-1-{[(2S)-oxetan-2-yl]methyl}-1H-1,3-benzodiazole-6-carboxylic acid], with below 50 nM; and `CCn1cncc1Cn1c(CN2CCC(Cc3cccc(COc4ccc(Cl)cc4Cl)c3)CC2)nc2ccc(C(=O)O)cc21` [Compound 104, 2-{[4-({3-[(2,4-dichlorophenoxy)methyl]phenyl}methyl)piperidin-1-yl]methyl}-1-[(1-ethyl-1H-imidazol-5-yl)methyl]-1H-1,3-benzodiazole-6-carboxylic acid], with below 50 nM.
Regarding `O=C(c1ccc(-c2nnn[nH]2)nc1)N1CCC(Cc2ccc(COc3ccc(Cl)cc3Cl)o2)CC1` [Compound 107, 5-[4-({5-[(2,4-dichlorophenoxy)methyl]furan-2-yl}methyl)piperidine-1-carbonyl]-2-(1H-1,2,3,4-tetrazol-5-yl)pyridine], the EC50 is above 500 nM.
For `CCn1cncc1Cn1c(CN2CCC(Cc3ccc(COc4ccc(Cl)cc4Cl)o3)CC2)nc2ccc(C(=O)O)nc21` [Compound 108, 2-{[4-({5-[(2,4-dichlorophenoxy)methyl]furan-2-yl}methyl)piperidin-1-yl]methyl}-3-[(1-ethyl-1H-imidazol-5-yl)methyl]-3H-imidazo[4,5-b]pyridine-5-carboxylic acid] the value was below 50 nM; for `CCn1cncc1Cn1c(CN2CCC(Cc3ccc(COc4ccc(Cl)cc4Cl)o3)CC2)nc2ccc(C(=O)O)cc21` [Compound 109, 2-{[4-({5-[(2,4-dichlorophenoxy)methyl]furan-2-yl}methyl)piperidin-1-yl]methyl}-1-[(1-ethyl-1H-imidazol-5-yl)methyl]-1H-1,3-benzodiazole-6-carboxylic acid], below 50 nM; for `O=C(O)c1ccc2nc(CN3CCN(C(=O)c4ncc(COc5ccc(Cl)cc5Cl)o4)CC3)n(C[C@@H]3CCO3)c2c1` [Compound 113, 2-[(4-{5-[(2,4-dichlorophenoxy)methyl]-1,3-oxazole-2-carbonyl}piperazin-1-yl)methyl]-1-{[(2S)-oxetan-2-yl]methyl}-1H-1,3-benzodiazole-6-carboxylic acid], above 500 nM.
For `Cc1ccc(N(C)c2cccc(CC3=CCN(Cc4nc5ccc(C(=O)O)cc5n4C[C@@H]4CCO4)CC3)c2)c(Cl)c1` [Compound 117, 2-{[4-({3-[(2-chloro-4-methylphenyl)(methyl)amino]phenyl}methyl)-1,2,3,6-tetrahydropyridin-1-yl]methyl}-1-{[(2S)-oxetan-2-yl]methyl}-1H-1,3-benzodiazole-6-carboxylic acid] the value was 50 to 500 nM.
Consider `Cc1ccc(OCc2cccc(CC3CCN(Cc4nc5ccc(C(=O)O)cc5n4C[C@@H]4CCO4)CC3)n2)c(Cl)c1` [Compound 118, 2-{[4-({6-[(2-chloro-4-methylphenoxy)methyl]pyridin-2-yl}methyl)piperidin-1-yl]methyl}-1-{[(2S)-oxetan-2-yl]methyl}-1H-1,3-benzodiazole-6-carboxylic acid], for which the EC50 is below 50 nM.

What is called EC50 is the midpoint of the concentration-response curve.
